From US4327213A, “Alpha-hydrocarbonoxyimino-pyrazineacetonitriles” (ACF Chemiefarma VA, priority 1977, dated 1982)
Like-named read-outs stand apart in the source and are kept apart here.

What was measured:
gastric secretion [1] = assay: Effects on gastric secretion in the pyloric ligated rat (method of Shay et al.); assay type: in vivo; details: intraduodenal, 100 mg/kg i.d., sacrificed 3 hours later
Method: 2. Effects on Gastric Secretion, in the Pyloric Ligated Rat
The method described by Shay, et al. (Gastroenterol (1945) 26, 906) was used. After overnight starvation the pylorus of a rat was ligated under halothane anaesthesia, the Compound vehicle only administered intraduodenally and the rats allowed to recover. They were sacrificed 3 hours later and the gastric juice removed. After measurement of the volume of secretion, its hydrogen ion concentration, [H^+ ], was determined by titration with 0.05 N NaOH to pH 7. Groups of 4-6 animals were used for each treatment and the inhibitory effect of the Compound was ascertained by comparison of the mean values obtained with those from a simultaneously set up control group of animals which received vehicle only. Students `t` test was applied for significance between groups. The mean values for % inhibition obtained for a number of experiments are shown in the following Table 2, the dosage being 100 mg/kg i.d.

[2] = test system: indomethacin-induced gastric damage; assay: Inhibition of indomethacin-induced gastric damage in the rat (anti-ulcer activity, method of Elegbe); assay type: in vivo; details: po, 5 h, indomethacin 15 mg/kg s.c., compound 100 mg/kg orally, 30 min prior to and 2 h post indomethacin, read-out: Table 1 % Inhibition (mean inhibition of gastric damage)
Method: This was assessed by the inhibition of indomethacin-induced gastric damage in the rat according to the method of Elegbe (Israeli J. Med. Sci. (1974), 10, 1451).
Rats were starved overnight, given indomethacin subcutaneously (15 mg/kg) and sacrificed 5 hours later. Stomachs were inflated with 0.9% saline, cut along the greater curvature, pinned out and scored for gastric damage by the following system:
Score 1-3 according to the degree of erythema and slight haemorrhage.
Score 4-6 according to degree of mucosal erosion.
Score 7-9 according to depth of gastric damage.
Groups of 7 rats were used for each treatment level of compound, and a similar group receiving vehicle only was set up on each occasion of testing. Compound or vehicle was administered orally 30 minutes prior to, and at 2 hours post, dosing with indomethacin. Mean values per treatment were obtained using the above scoring system and the Mann Witney test applied for significance between such values. The mean inhibition of gastric damage from a number of experiments is shown in the following Table 1; the dosage being 100 mg/kg orally.

Acute toxicity in mice = details: mouse, in vivo
Method: (§1) 5 (Z-isomer) up to 536 or 824 mg/kg in mice and rats respectively. The acute oral median lethal dose of compound no. 5 is 1268 mg/kg in male mice and 2311 mg/kg in male rats.

Acute toxicity in rats = details: rat, in vivo
Method: as §1

gastric secretion [3] = assay: Effects on gastric secretion in the pyloric ligated rat (method of Shay et al.); assay type: in vivo; details: intraduodenal, 50 mg/kg i.d., sacrificed 3 hours later
[4] = read-out: Table 2 % Inhibition Volume (volume of gastric secretion)
[5] = read-out: Table 2 % Inhibition [H^+ ] (hydrogen ion concentration)

Row | SMILES | inhibition in vivo at 100 mg/kg (gastric secretion [1]; [4]) | inhibition in vivo at 100 mg/kg (gastric secretion [1]; [5]) | inhibition in vivo at 100 mg/kg [2] | also measured
1 | CON=C(C#N)c1cccc(Cl)n1 [6 aa] | 35% | 23% |  | 
2 | CCO/N=C(\C#N)c1cnccn1 [6 b] | 66% | 60% | 68% | 
3 | CO/N=C(\C#N)c1c[n+](C)ccn1 [Compound 15, α-Methoxyimino-2-pyrazineacetonitrile-4-methiodide] |  |  | 55% | 
4 | CO/N=C(\C#N)c1ccnc2ccccc12 [6 ll] | 85% | 23% | 85% | 
5 | CCCCO/N=C(\C#N)c1cnccn1 [6 d] |  |  | 50% | 
6 | CON=C(C#N)c1ccccn1 [6 a] | 62% |  | 62% | 
7 | CO/N=C(\C#N)c1ccc2ccccc2n1 [6 ee] | 28% |  | 84% | 
8 | CON=C(c1ccccn1)C(F)(F)F [Compound 7, 2-Pyridinyl trifluoromethyl ketone, O-methyl oxime] | 74% | 33% |  | 
9 | CON=C(C#N)c1cncnc1 [6 dd] | 35% | 39% | 77% | 
10 | CO/N=C(/C#N)c1cnc2ccccn12 [6 qq] | 77% | 29% | 100% | 
11 | CO/N=C(\C#N)c1nccc2ccccc12 [6 mm] | 28% |  | 42% | 
12 | CC(C)O/N=C(\C#N)c1cnccn1 [6 c] | 52% |  | 43% | 
13 | CON=C(C#N)c1cnccn1 [Compound 5, α-Methoxyiminopyrazineacetonitrile] |  |  |  | LD50 (Acute toxicity in mice; male mice, oral, read-out: Acute oral median lethal dose): 1270 mg/kg; LD50 (Acute toxicity in rats; male rats, oral, read-out: Acute oral median lethal dose): 2310 mg/kg
14 | CON=Cc1cnccn1 [12 (and 13), Pyrazine carboxaldehyde, O-methyl oxime] | 42% |  | 66% | 
15 | CO/N=C(\C#N)c1cnc2ccccc2n1 [6 nn] | 28% |  | 79% | 
16 | CO/N=C(\C#N)c1ccc2ccc(C)cc2n1 [6 gg] |  |  | 42% | 
17 | N#C/C(=N\OC1CCCCC1)c1cnccn1 [6 e] | 62% | 48% |  | 
18 | CO/N=C(/C#N)c1cnccn1 [5 (E-isomer), α-Methoxyiminopyrazineacetonitrile] |  |  | 96% | 
19 | CON=C(C#N)c1ccncc1 [6 cc] | 80% | 39% | 95% | 
20 | CO/N=C(\C#N)c1cnccn1 [5 (Z-isomer), α-Methoxyiminopyrazineacetonitrile] | 70% | 73% | 94% | NOAEL (Acute toxicity in mice; mice, single doses, read-out: Single dose up to which no adverse effects were seen): ≥ 536 mg/kg; NOAEL (Acute toxicity in rats; rats, single doses, read-out: Single dose up to which no adverse effects were seen): ≥ 824 mg/kg
21 | CO/N=C(\C(N)=O)c1ccccn1 [9 b] | 26% |  | 56% | 
22 | CO/N=C(\C(N)=S)c1ccccn1 [8 (and 10), α-Methoxyimino-2-pyridinethioacetamide] |  |  | 74% | inhibition in vivo at 50 mg/kg (gastric secretion [3]; [4]): 32%; inhibition in vivo at 50 mg/kg (gastric secretion [3]; [5]): 24%
23 | CO/N=C(\C#N)c1ccc2cc(C)ccc2n1 [6 ff] |  |  | 42% | 
24 | CO/N=C(\C#N)c1c[n+]([O-])ccn1 [14 a] | 50% | 34% | 91% | 
25 | CO/N=C(/C(N)=O)c1ccccn1 [9 c] | 40% |  | 65% | 
26 | CON=C(C#N)c1cccnc1 [6 bb] |  |  | 72% | 
